The values that follow come from patent US20110190246A1, “ESTRATRIENE DERIVATIVES COMPRISING HETEROCYCLIC BIOISOSTERES FOR THE PHENOLIC A-RING” (Bayer Schering Pharma Aktiengesellschaft, priority 2008, published 2011).

One may read the EC50 as the concentration at which the effect is half-maximal.

Molecules are shown by their SMILES.

The subject of data set [1] is human cryopreserved hepatocytes. The data set is described as follows: Stability in hepatocytes. The data set is classed as in vitro ADME. As to conditions: maximal theoretical bioavailability. As to the method: The metabolic stability of test compounds with respect to phase 1 and phase 2 metabolisms was investigated by incubation of the compounds with hepatocytes. These investigations were performed for characterisation of compounds in case of phase 2 metabolism is to be expected. […] After analytical workup the concentrations of the test compounds after different incubation periods were related to the initial concentration of the respective test compound (zero hour's time point). The resulting area under the concentration-time-curve of the test compound investigated in the assay is used to derive the respective Fmax value.

A further data set concerns hepatic gene CaBP. The data set is described as follows: Induction of the hepatic gene CaBP (hepatic estrogenicity). The data set is classed as in vivo. As to conditions: dose response curves, FIGS. 1-3. The text has this: Data regarding the uterine and hepatic activity of example 1 and example 4 in comparison to Ethinylestradiol are shown in FIGS. 1, 2, and 3. Dose response curves describing the increases in relative uterine weight (closed circles) and the induction of the hepatic gene CaBP (open circles) are shown for ethinylestradiol (FIG 1), example 1 (FIG. 2), and example 4 (FIG. 3). […] This may implicate that compounds of example 1 and 4 show lower hepatic estrogenicity if compared to Ethinylestradiol.

Data set [2] deals with T1, ERα (Homo sapiens, UniProt P03372).
T1 sequence (P03372 1-595): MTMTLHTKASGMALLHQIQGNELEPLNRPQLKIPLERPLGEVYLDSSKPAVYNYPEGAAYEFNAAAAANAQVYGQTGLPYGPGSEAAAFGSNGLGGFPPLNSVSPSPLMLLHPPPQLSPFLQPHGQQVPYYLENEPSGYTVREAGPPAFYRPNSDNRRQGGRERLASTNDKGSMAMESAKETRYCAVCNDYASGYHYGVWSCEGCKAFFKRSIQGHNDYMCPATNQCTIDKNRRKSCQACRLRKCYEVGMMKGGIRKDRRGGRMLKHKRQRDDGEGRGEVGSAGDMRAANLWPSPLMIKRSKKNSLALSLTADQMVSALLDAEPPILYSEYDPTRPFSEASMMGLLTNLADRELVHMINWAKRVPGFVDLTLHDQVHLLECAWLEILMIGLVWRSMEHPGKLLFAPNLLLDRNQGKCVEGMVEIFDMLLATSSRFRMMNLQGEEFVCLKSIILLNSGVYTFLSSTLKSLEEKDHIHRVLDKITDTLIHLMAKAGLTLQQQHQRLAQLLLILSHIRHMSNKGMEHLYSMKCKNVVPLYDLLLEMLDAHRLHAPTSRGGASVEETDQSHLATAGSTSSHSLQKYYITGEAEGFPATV
The data set can be described thus: Transactivation assay in U2OS cells. In kind it is cell-based. As to conditions: U2OS cells transiently transfected with ERα and luciferase reporter, 24 hours. A general note: In a reporter assay the amount or activity of a reporter protein is the signal.

The target in data set [3] is T1, ERα. The data set can be described thus: Induction of alkaline phosphatase in human endometrial Ishikawa cells. In kind it is cell-based. The conditions noted are these: 72 hours, read-out: EC50 Alkaline phoshatase induction, Ishikawa cells. Here is the method: Alkaline phosphatase is an estrogen target gene in the normal uterine epithelium as well as in endometrial-derived cancer cells, such as Ishikawa cells. […]. Ishikawa cells (from European collection of cell cultures) were maintained in phenolred-free MEM with 5% FCS, 4 mM glutamine, 1% non, essential amino acids and 100 U/ml penicillin and 100 μg/ml streptomycin. […]. On the third day, the media were removed; cells were washed two times with 50 μl PBS and then frozen at −80° C. for 20 min. After thawing at room temperature for 10 min, cells were incubated with 100 μl of 1-Step PNPP reagent (Pierce) and incubated for 1.5 h at room temperature. OD was measured at 405 nm sing a Polarstar Optima. Dose response curves were generated using and ED50 values were calculated using Sigma plot.

The target of data set [4] is T2, ERα (Rattus norvegicus, UniProt P06211).
T2 construct: from tissue; host or cells: uterus of ovariectomized adult female Wistar rats (in vivo)
T2 sequence (P06211 1-600): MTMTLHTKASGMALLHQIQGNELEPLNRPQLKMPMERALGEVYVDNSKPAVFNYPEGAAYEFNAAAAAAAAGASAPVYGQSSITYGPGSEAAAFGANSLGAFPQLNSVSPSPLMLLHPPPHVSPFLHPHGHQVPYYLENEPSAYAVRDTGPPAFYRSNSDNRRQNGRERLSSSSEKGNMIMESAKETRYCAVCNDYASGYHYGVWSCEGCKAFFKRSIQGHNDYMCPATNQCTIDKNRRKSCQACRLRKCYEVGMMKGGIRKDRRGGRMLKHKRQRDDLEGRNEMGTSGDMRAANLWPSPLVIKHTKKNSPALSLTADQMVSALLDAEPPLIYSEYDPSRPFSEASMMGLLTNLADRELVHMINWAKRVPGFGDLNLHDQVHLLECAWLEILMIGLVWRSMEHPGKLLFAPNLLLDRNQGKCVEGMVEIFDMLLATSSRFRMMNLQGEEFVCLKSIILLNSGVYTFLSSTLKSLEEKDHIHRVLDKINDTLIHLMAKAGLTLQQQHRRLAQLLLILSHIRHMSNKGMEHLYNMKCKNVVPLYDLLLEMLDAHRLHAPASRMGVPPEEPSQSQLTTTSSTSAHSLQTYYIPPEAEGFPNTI
The data set is described as follows: Stimulation of uterine growth in vivo in ovariectomized rats. The conditions noted are these: for uterotrophic activity (increase in relative uterine weight): dose response curves, FIGS. 2-3. Also on record: species or system Wistar rats.

For data set [5], the target named is T1, ERα. The data set is described as follows: Transactivation assay in stably transfected MCF-7 cells (MVLN assay). The data set is classed as cell-based. More on the design: MCF-7 cells endogenously expressing ERα; endogenous in cells; host or cells: MCF-7 stably transfected with vitellogenin-tk-luciferase reporter (MVLN). Here is the method:
To analyse activation of the ERα by diverse tool compounds in a second cellular system, we used MCF-7 cells endogenously expressing ERα and stably transfected with the estrogen-responsive vitellogenin-tk-luciferase reporter plasmid. […]. Luciferase activity was measured after addition of 25 μl steady-Glo in a TopCount. Dose response curves were generated and EC50 values were calculated using Sigma plot.

The target in data set [6] is T3, estrogen receptor α (ERα) (Homo sapiens, UniProt P03372).
T3 construct: made in house; host or cells: Hi5 insect cells (baculovirus)
The data set is described as follows: Binding to estrogen receptor α (competition with 3H-estradiol). The conditions noted are these: KF = IC50 of test compound / IC50 of estradiol. As to the method:
The ERα protein used in the binding assay was purified from cytosolic fractions of Hi5 cells transfected with recombinant bacuioviruses encoding either the human ERα. Aliquots of cytosolic fractions were stored at −80° C. and had protein concentrations of 5-7 mg/ml (as determined by the BCA method).
30 μl of cytosol were added leading to a final volume of 50 μl per well. […] The protein-bound radioactivity was measured by addition of 200 μl Microszint-40 (Canberra Packard) to each well using a TopCount scintillation counter.

[7] abbreviates: luciferase reporter, Table 2, read-out: MVLN-Transactivation (EC50 in nM).

Consider `C[C@]12CC[C@@H]3c4ccc(O)cc4CC[C@H]3[C@@H]1CC[C@@H]2O` [Estradiol, reference compound], for which the “Fmax (calculated from hepatocyte stability)” value in data set [1] is recorded as 17%.
Turning to `C#C[C@]1(O)CC[C@H]2[C@@H]3CCc4cc(O)ccc4[C@H]3CC[C@@]21C` [Ethinylestradiol, reference compound], in the data set on hepatic gene CaBP, the “induction of the hepatic gene CaBP” value is on record as “significant induction of CaBP”.
For the compound `C[C@]12CCC3c4ccc5[nH]ncc5c4CCC3C1CC[C@@H]2O` (stereo partly drawn) [Example 1, 2′H-Pyrazolo[3′,4′:3,4]estra-1,3,5(10)-trien-17β-ol], the “induction of the hepatic gene CaBP” value with hepatic gene CaBP is “do not stimulate this hepatic gene”. Also, the EC50 was found to be 0.082 nM at ERα [2]; 0.759 nM on ERα [3]; 1.41 nM on ERα [5] (setting [7]); 1.42 nM at ERα [5] (vitellogenin-tk-luciferase reporter, 24 hours, Table 1, read-out: EC50 ERα transactivation, MVLN assay). The “uterotrophic activity (increase in relative uterine weight)” value on ERα [4] was “full uterotrophic activity”. The “ED50 Uterine growth” value on ERα [4] (ovariectomized Wistar rats, subcutaneously daily for 14 days, relative uterine weight) amounted to 8.25 μg/kg bodyweight. In data set [1], the “Fmax (calculated from hepatocyte stability)” value was 34%. In addition, the “ERα binding [KF]” value in data set [6] is 1.6.
As for `C[C@]12CCC3c4ccc5[nH]ncc5c4CCC3C1CCC2=O` (some centres unmarked) [Example 2, 2′H-Pyrazolo[3′,4′:3,4]estra-1,3,5(10)-trien-17-one], the EC50 on ERα [5] (setting [7]) was determined as 12.6 nM.
As for `C[C@]1(O)CCC2C3CCc4c(ccc5[nH]ncc45)C3CC[C@@]21C` (stereo partly drawn) [Example 3, 17α-Methyl-2′H-pyrazolo[3′,4′:3,4]estra-1,3,5(10)-trien-17β-ol], the EC50 at ERα [5] (setting [7]) was found to be 3.53 nM.
As to `C#C[C@]1(O)CCC2C3CCc4c(ccc5[nH]ncc45)C3CC[C@@]21C` (stereo partly drawn) [Example 4, 17α-Ethinyl-2′H-pyrazolo[3′,4′:3,4]estra-1,3,5(10)-trien-17β-ol], the “induction of the hepatic gene CaBP” value in the data set on hepatic gene CaBP is “do not stimulate this hepatic gene”. Besides, the “uterotrophic activity (increase in relative uterine weight)” value at ERα [4] is “full uterotrophic activity”. Further, the concentration for a half-maximal effect (EC50) at ERα [5] (setting [7]) amounted to 1.01 nM.
As for `C=C[C@]1(O)CCC2C3CCc4c(ccc5[nH]ncc45)C3CC[C@@]21C` (stereo partly drawn) [Example 5, 17α-Vinyl-2′H-pyrazolo[3′,4′:3,4]estra-1,3,5(10)-trien-17β-ol], the EC50 at ERα [5] (setting [7]) was found to be 3.72 nM.
With `CC[C@]1(O)CCC2C3CCc4c(ccc5[nH]ncc45)C3CC[C@@]21C` (stereo partly drawn) [Example 6, 17α-Ethyl-2′H-pyrazolo[3′,4′:3,4]estra-1,3,5(10)-trien-17β-ol], on ERα [5] (setting [7]), the concentration for a half-maximal effect (EC50) came to 130 nM.
Same read-out and setting: then `C=CC[C@]1(O)CCC2C3CCc4c(ccc5[nH]ncc45)C3CC[C@@]21C` (stereo partly drawn) [Example 7, 17α-Allyl-2′H-pyrazolo[3′,4′:3,4]estra-1,3,5(10)-trien-17β-ol], with 82.6 nM; and `CC#C[C@]1(O)CCC2C3CCc4c(ccc5[nH]ncc45)C3CC[C@@]21C` (stereo partly drawn) [Example 8, 17α-(Prop-1-inyl)-2′H-pyrazolo[3′,4′:3,4]estra-1,3,5(10)-trien-17β-ol], with 16.5 nM; and `C[C@]12CCC3c4ccc5[nH]ncc5c4CCC3C1CC[C@@]2(O)C(F)(F)F` (stereo partly drawn) [Example 9, 17α-Trifluoromethyl-2′H-pyrazolo[3′,4′:3,4]estra-1,3,5(10)-trien-17β-ol], with 77.3 nM.
For the compound `C[C@]12CCC3c4ccc5[nH]ncc5c4CCC3C1CC[C@@]2(O)C(F)(F)C(F)(F)F` (stereo partly drawn) [Example 10, 17α-Pentafluoroethyl-2′H-pyrazolo[3′,4′:3,4]estra-1,3,5(10)-trien-17β-ol], the EC50 on ERα [5] (setting [7]) came out at 270 nM.
Turning to `C[C@]12CCC3c4ccc5[nH]nnc5c4CCC3C1CCC2=O` (some centres unmarked) [Example 11, 3′H-Triazolo[4′,5′:3,4]estra-1,3,5(10)-trien-17-on], the EC50 on ERα [5] (setting [7]) is 308 nM.
